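Assay format: 96-well plates, 48-hour exposure. At the GI50, growth is halved.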 Activity calls are given as the source filed them. Cut-off read from the data, not from the text of the source: active = GI50 up to about 1.1 µM and inactive = higher.

Among the test systems are A549; M14; U-251; TK-10; MOLT-4; SK-MEL-5; BT-549; OVCAR-4; T47D; SK-OV-3; HT-29; SF-268; MDA-MB-231; OVCAR-5; K562; NCI-H522; ACHN; HL-60; CAKI-1; NCI-H226.
Assay in all cases: inhibition of tumour cell growth, NCI panel, 48 h

Consider `O=C1C(O)=C(CC=C(Cl)Cl)C(=O)c2ccccc21`, for which the GI50 in the test with A549 was 4.44 µM (inactive); in the test on M14, 12.6 µM (inactive); in the test with U-251 it was 2.62 µM (inactive); in the test with TK-10, 38.9 µM (inactive); in the test with MOLT-4, 1.46 µM (inactive); with SK-MEL-5, 8 µM (inactive). Besides, the GI50 in the test with BT-549 is 18.3 µM (inactive); in the test on OVCAR-4, 21.7 µM (inactive); with T47D, 38.5 µM (inactive); in the test with SK-OV-3, 41.6 µM (inactive); in the test on HT-29 it was 4.6 µM (inactive); in the test on SF-268, 11.7 µM (inactive). For the same compound, the GI50 with MDA-MB-231 is 15.1 µM (inactive); in the test on OVCAR-5 it was 47.5 µM (inactive); in the test on K562, 1.82 µM (inactive); with NCI-H522, 14 µM (inactive); in the test with ACHN it was 12.3 µM (inactive); in the test with HL-60, 2.07 µM (inactive). Further, the GI50 with CAKI-1 is 23.1 µM (inactive).

Turning to `C=C(C)C(=O)O[C@@H]1C[C@@]2(C)O[C@@H]2C[C@H](O)/C(C)=C/[C@H]2OC(=O)C(=C)[C@@H]21`, the GI50 in the test on A549 was > 100 µM (inactive); in the test on M14 it was 43.1 µM (inactive); with U-251, > 100 µM (inactive); in the test with TK-10 it was > 100 µM (inactive); in the test with MOLT-4 it was 28.8 µM (inactive); in the test on SK-MEL-5, > 100 µM (inactive). For the same compound, the GI50 in the test with BT-549 was 63.1 µM (inactive); in the test on OVCAR-4, 19.9 µM (inactive); in the test with T47D it was 50.7 µM (inactive); with SK-OV-3, > 100 µM (inactive); with HT-29, 61.5 µM (inactive); in the test on SF-268, > 100 µM (inactive). Further, the GI50 in the test with MDA-MB-231 was > 100 µM (inactive); with OVCAR-5, > 100 µM (inactive); in the test on K562, 29 µM (inactive); in the test with NCI-H522 it was 12.6 µM (inactive); in the test on NCI-H226 it was > 100 µM (inactive); with ACHN, 47.2 µM (inactive). In the test on CAKI-1, the GI50 was 28.6 µM (inactive).

Turning to `COc1cc2cc(C(=O)N3CC(CCl)c4c3cc(N)c3ccccc43)[nH]c2cc1OCCN(C)C` (stereo not given), the GI50 in the test with A549 is < 0.005 µM (active); in the test on M14, < 0.005 µM (active); with U-251 it was < 0.005 µM (active); in the test on TK-10, 0.00522 µM (active); with MOLT-4 it was 0.0561 µM (active); with SK-MEL-5, < 0.005 µM (active). For the same compound, the GI50 in the test with BT-549 was 0.051 µM (active); in the test with OVCAR-4, 0.00628 µM (active); in the test on T47D, < 0.005 µM (active); in the test on SK-OV-3 it was 0.0105 µM (active); in the test on HT-29, 0.5 µM (active); in the test with SF-268 it was < 0.005 µM (active). Further, the GI50 in the test with MDA-MB-231 was < 0.005 µM (active); in the test with OVCAR-5, 0.00713 µM (active); in the test with K562, < 0.005 µM (active); with NCI-H522, < 0.005 µM (active); in the test on NCI-H226, 0.00528 µM (active); with ACHN it was < 0.005 µM (active). Moreover, the GI50 with CAKI-1 is < 0.005 µM (active).

As to `CCOC(=O)C1=CNC(C(=O)OCC)C1c1cccn1-c1ccc(Cl)cc1[N+](=O)[O-]` (stereo not given), the GI50 was 32.1 µM (inactive) in the test with A549; 15.3 µM (inactive) in the test on M14; 20.7 µM (inactive) in the test on U-251; 13.1 µM (inactive) in the test with TK-10; 22.1 µM (inactive) with MOLT-4; 16.6 µM (inactive) in the test on SK-MEL-5. In addition, the GI50 in the test on BT-549 is 22.8 µM (inactive); in the test with OVCAR-4, 31.3 µM (inactive); in the test with T47D, 24.2 µM (inactive); in the test on SK-OV-3, 32.7 µM (inactive); in the test with HT-29, 16.1 µM (inactive); in the test on SF-268 it was 18.2 µM (inactive). Besides, the GI50 is 10 µM (inactive) with MDA-MB-231; 12.5 µM (inactive) in the test with OVCAR-5; 23.8 µM (inactive) with K562; 16 µM (inactive) in the test on NCI-H522; 20.1 µM (inactive) in the test on NCI-H226; 30.3 µM (inactive) in the test on ACHN. In the test on CAKI-1, the GI50 is 20 µM (inactive).

For the compound `O=C1CCCCC/C1=C\c1ccc(F)cc1`, the GI50 in the test with A549 was > 100 µM (inactive); with M14, > 100 µM (inactive); with U-251, 98.6 µM (inactive); in the test on TK-10, 50.8 µM (inactive); in the test on MOLT-4, 67.3 µM (inactive); in the test on SK-MEL-5, 44.8 µM (inactive). Besides, the GI50 in the test with BT-549 was 99.1 µM (inactive); in the test with OVCAR-4, 95.5 µM (inactive); with T47D, > 100 µM (inactive); with SK-OV-3, > 100 µM (inactive); in the test on HT-29, > 100 µM (inactive); in the test on SF-268, > 100 µM (inactive). The GI50 in the test on MDA-MB-231 is > 100 µM (inactive); with OVCAR-5, > 100 µM (inactive); in the test with K562 it was > 100 µM (inactive); in the test on NCI-H522, 51.5 µM (inactive); in the test with NCI-H226, > 100 µM (inactive); in the test with ACHN, > 100 µM (inactive). For the same compound, the GI50 in the test on CAKI-1 is > 100 µM (inactive).

In the case of `COC(=O)c1cc2c3c(cc(NCCN)c2[nH]1)N(C(=O)c1cc2cc(OC)c(OC)c(OC)c2[nH]1)CC3CCl` (stereo not given), the GI50 in the test with A549 was 0.145 µM (active); with M14 it was 0.118 µM (active); in the test on U-251, 0.0144 µM (active); in the test on TK-10, 0.366 µM (active); in the test on MOLT-4, 0.0251 µM (active); in the test on SK-MEL-5 it was 0.0313 µM (active). In addition, the GI50 was 0.229 µM (active) with BT-549; 0.0925 µM (active) in the test on OVCAR-4; 0.031 µM (active) in the test with T47D; 0.273 µM (active) in the test with SK-OV-3; 0.0277 µM (active) in the test on HT-29; 0.0213 µM (active) with SF-268. The GI50 in the test on MDA-MB-231 is 0.0638 µM (active); with OVCAR-5 it was 0.0393 µM (active); in the test with K562, 0.0247 µM (active); with NCI-H522, < 0.01 µM (active); in the test with NCI-H226 it was 0.0177 µM (active); in the test on ACHN, 0.0889 µM (active). The GI50 with CAKI-1 was 0.144 µM (active).

As for `Cc1cc(C)nc(NS(=O)(=O)c2ccc(Nc3c4ccccc4nc4c(C(=O)NCCCN(CCO)CCO)cccc34)cc2)n1`, the GI50 in the test on A549 was 26.4 µM (inactive); with M14, 31.8 µM (inactive); with U-251 it was 13.9 µM (inactive); in the test with TK-10, > 100 µM (inactive); in the test with MOLT-4 it was 3.33 µM (inactive); in the test on SK-MEL-5, 14.8 µM (inactive). The GI50 is 11.6 µM (inactive) in the test on BT-549; 16.9 µM (inactive) in the test with OVCAR-4; 22.5 µM (inactive) in the test on T47D; 50.1 µM (inactive) in the test with SK-OV-3; 12.9 µM (inactive) in the test with HT-29; 16.9 µM (inactive) in the test on SF-268. Further, the GI50 was 27.4 µM (inactive) in the test on MDA-MB-231; 26.4 µM (inactive) in the test on OVCAR-5; 10.6 µM (inactive) with K562; 10.9 µM (inactive) with NCI-H522; 22.9 µM (inactive) in the test with ACHN; 11.5 µM (inactive) in the test with HL-60. Further, the GI50 in the test with CAKI-1 was 56.2 µM (inactive).

On to `COC(=O)[C@H](CCSC)NC(=O)c1ccc(CNC(=O)/C(C)=C/c2ccccc2)cc1`, for which the GI50 in the test on A549 is 52 µM (inactive); in the test on M14, 30.8 µM (inactive); with U-251 it was 31 µM (inactive); with TK-10, > 100 µM (inactive); with MOLT-4, > 100 µM (inactive); with SK-MEL-5 it was 34.8 µM (inactive). The GI50 is 24.7 µM (inactive) with BT-549; 31.1 µM (inactive) in the test on OVCAR-4; 21.8 µM (inactive) with T47D; 39.4 µM (inactive) in the test on SK-OV-3; 21 µM (inactive) in the test on HT-29; 25.8 µM (inactive) with SF-268. Also, the GI50 in the test with MDA-MB-231 was 46.8 µM (inactive); in the test on OVCAR-5 it was 97.1 µM (inactive); in the test on K562 it was > 100 µM (inactive); in the test on NCI-H522, 10.8 µM (inactive); with NCI-H226, > 100 µM (inactive); in the test on ACHN, 44.3 µM (inactive). In addition, the GI50 with CAKI-1 is 30.6 µM (inactive).

In the case of `C/C(C=O)=N\Nc1cc(C)c2ccccc2n1`, the GI50 in the test with A549 is 20.6 µM (inactive); in the test on M14 it was 15.7 µM (inactive); in the test with U-251, 14 µM (inactive); in the test with TK-10 it was 15.5 µM (inactive); in the test with MOLT-4 it was 16.2 µM (inactive); in the test on SK-MEL-5, 15.6 µM (inactive). The GI50 in the test with BT-549 was 12.8 µM (inactive); in the test with OVCAR-4, 12.8 µM (inactive); with T47D, 15.8 µM (inactive); in the test on SK-OV-3, 20.9 µM (inactive); in the test on HT-29, 16.7 µM (inactive); in the test with SF-268, 16.9 µM (inactive). In addition, the GI50 is 15.1 µM (inactive) in the test on MDA-MB-231; 17.2 µM (inactive) in the test with OVCAR-5; 13.4 µM (inactive) in the test on K562; 17.1 µM (inactive) with NCI-H522; 6.52 µM (inactive) in the test with NCI-H226; 16.3 µM (inactive) with ACHN. For the same compound, the GI50 in the test with CAKI-1 was 16.9 µM (inactive).

Regarding `COc1ccc2c(c1)-c1c(c3cc(OC)ccc3n1CCN1CCOCC1)CC2`, the GI50 is 23.9 µM (inactive) with A549; 15.8 µM (inactive) with M14; 29.4 µM (inactive) in the test with U-251; 32.7 µM (inactive) with TK-10; 11.9 µM (inactive) in the test with MOLT-4; 25.4 µM (inactive) with SK-MEL-5. Further, the GI50 in the test on BT-549 was 28.4 µM (inactive); in the test on OVCAR-4 it was 54 µM (inactive); in the test with T47D it was 44.4 µM (inactive); in the test on SK-OV-3, > 100 µM (inactive); with HT-29, 13.5 µM (inactive); with SF-268, 55 µM (inactive). Also, the GI50 in the test with MDA-MB-231 was 34.4 µM (inactive); in the test with OVCAR-5, 25.4 µM (inactive); in the test with K562 it was 13.2 µM (inactive); with NCI-H522 it was 23.3 µM (inactive); in the test with NCI-H226 it was 14.7 µM (inactive); in the test with ACHN, 29.4 µM (inactive). In the test on CAKI-1, the GI50 was 44.2 µM (inactive).
